Results as given in patent US20230130403A1, “METHODS OF TREATMENT WITH S1P RECEPTOR MODULATORS” (PRIOTHERA SAS, priority 2021, published 2023).
Where two headings read alike, the source gives them in different places.

What was measured:
bacterial mutation = assay: In vitro genotoxicity: bacterial mutation; type: cell-based
[1] = tested on: allogeneic-stimulated T cell proliferation; assay: Mixed lymphocyte reactions (MLR); type: cell-based; details: therapeutic concentrations in vitro
Excerpt: (§1) KRP203 reduces lymphocyte counts in peripheral blood by more than 80%.

[2] = tested on: respiratory function in dogs; assay: Safety pharmacology: respiratory function in dogs; type: in vivo, dog; details: doses up to 20 mg/kg (highest dose tested)
Excerpt: (§2) Based on the available in vitro and in vivo data, except for the potential to cause a negative chronotropic effect and some mild increase in blood pressure, there is no indication that KRP203 would cause arrhythmia or QT prolongation in man.

QT prolongation [3] = assay: QT prolongation in anaesthetized guinea pigs; type: in vivo, guinea pig
Excerpt: as §2

[4] = tested on: pulmonary endothelial barrier; assay: Pulmonary endothelial barrier after single oral dose; type: in vivo
Excerpt: as §2

rats = assay: Acute toxicity in rats; type: in vivo
QT prolongation [5] = assay: QT prolongation in telemetered dogs; type: in vivo, dog
Excerpt: as §2

mice [6] = assay: Acute toxicity in mice; type: in vivo
liver = assay: Genomic profiling of the liver in a 2-week exploratory toxicity study in rats; type: in vivo, rat
[7] = tested on: patients undergoing allogeneic HSCT for hematological malignancies; assay: Study CKRP203A2105, phase Ib in patients undergoing allogeneic HSCT;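 note: counts of subjects, HLA-matched donor stem cells, transplant on Day 11 following myeloablative chemotherapy conditioning from Day 2 to Day 10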
Description: The study population comprised of male or female subjects who were diagnosed with a hematological malignancy and qualified for a standard allogeneic HSCT where HLA matched stem cell source was available. Such malignancies included but were not limited to acute myeloid leukemia (AML), acute lymphoid leukemia (ALL), myelodysplastic syndrome (MDS, chronic lymphoid leukemia (CLL), marginal zone and follicular lymphomas, large-cell lymphoma, lymphoblastic, Burkitt's and other high grade lymphomas; mantle-cell lymphoma, lymphoplasmacytic lymphoma; prolymphocytic leukemia or multiple myeloma.
HSCT was performed on Day 11. In addition to the investigational treatment with KRP203, the activities included conditioning, standard GvHD prophylaxis, infusion of the stem cells, pre and post-transplant supportive care and follow-up assessments according to the institutional practices. Subjects remained hospitalized for two to five days after bone marrow engraftment occurred. The subsequent study visits were ambulatory or in-house, if needed depending on the health status of the subject.
Myeloablative conditioning was performed between Day 2 and Day 10 as per SOC using chemotherapy.
As in Part 1, HSCT was performed on Day 11, all other procedures/visits were same as in Part 1.

eye irritation = assay: Eye irritation; details: in vivo
[8] = tested on: hematological cytotoxicity; assay: Hematological cytotoxicity in vitro; type: cell-based; details: therapeutic concentrations in vitro
Excerpt: as §1

[9] = tested on: guinea pig papillary muscle preparation; assay: APD in guinea pig papillary muscle preparation; details: concentrations of 3 μM
Excerpt: as §2

[10] = tested on: peripheral lymphocyte counts; assay: Recovery of absolute lymphocyte counts after S1P modulator dosing in healthy volunteers; type: in vivo, human; details: single 1 mg FTY720, BAF312 multiple doses for 28 days, single 3 mg KRP203
Description: Mocravimod is particularly preferred. […] A measurable parameter that determines maintenance of the mode of action, i.e., sequestering of lymphocytes in secondary lymphoid organs and bone marrow, is reduction of peripheral lymphocyte counts. Recovery of absolute lymphocyte counts to 80% of normal counts after a single 1 mg dose of FTY720, multiple dose applications of BAF312 for 28 days, or a single 3 mg dose of KRP203 was reached after 8, 7 and more than 10 days, respectively.

hERG channels = hERG channels (Homo sapiens, UniProt Q12809); assay: hERG channel inhibition in vitro; type: biochemical; details: between 0.5 and 10 μM
Excerpt: as §2

dogs = assay: Acute toxicity in dogs; type: in vivo, dog
Description: No mortality was seen following single oral dosing in dogs up to 2000 mg/kg.

mice [11] = assay: Repeat-dose toxicity studies in mice; details: mouse, in vivo
Description: (§3) The kidney was a target organ of toxicity in mice only and only in a 2-week study at doses ≥45 mg/kg.
(§4) Kidney impairment was most likely the primary cause of death/moribundity seen in this study.

[12] = Repeat-dose toxicity studies in mice; details: in vivo; 13-week mouse study, 20 mg/kg; read-out: systemic exposure (AUC0-24 h)
Description: as §3, §4

rats and rabbits = assay: Reproductive toxicity studies in rats and rabbits; type: in vivo
[13] = tested on: contact sensitizing potential; assay: Contact sensitization; details: in vivo
[14] = tested on: lymphocyte counts in peripheral blood; assay: Reduction of lymphocyte counts in peripheral blood; details: in vivo
Excerpt: as §1

CYP3A4 = CYP3A4 (Homo sapiens, UniProt P08684); assay: Metabolism by CYP enzymes (in vitro data); type: in vitro ADME
Excerpt: The weak inhibitory effect of ciclosporin on hepatic CYP3A4 is unlikely to relevantly impact the PK of KRP203.

[15] = Part 1, 3 mg KRP203+CsA, n=10, after 30 days of transplant
[16] = Part 1, 3 mg KRP203+CsA, n=10, from transplant up to 30 days of transplant
[17] = Part 1, 3 mg KRP203+CsA, n=10, start of treatment until just before transplant
[18] = Part 1, after 30 days of transplantation
[19] = Part 1, start of treatment until just before transplant
[20] = Part 2, 1 mg KRP203+CsA arm, from transplant up to 30 days after transplant
[21] = Part 2, after 30 days of transplantation
[22] = Part 2, following 30 days after transplant

Chain of CYP3A4 (P08684 whole entry): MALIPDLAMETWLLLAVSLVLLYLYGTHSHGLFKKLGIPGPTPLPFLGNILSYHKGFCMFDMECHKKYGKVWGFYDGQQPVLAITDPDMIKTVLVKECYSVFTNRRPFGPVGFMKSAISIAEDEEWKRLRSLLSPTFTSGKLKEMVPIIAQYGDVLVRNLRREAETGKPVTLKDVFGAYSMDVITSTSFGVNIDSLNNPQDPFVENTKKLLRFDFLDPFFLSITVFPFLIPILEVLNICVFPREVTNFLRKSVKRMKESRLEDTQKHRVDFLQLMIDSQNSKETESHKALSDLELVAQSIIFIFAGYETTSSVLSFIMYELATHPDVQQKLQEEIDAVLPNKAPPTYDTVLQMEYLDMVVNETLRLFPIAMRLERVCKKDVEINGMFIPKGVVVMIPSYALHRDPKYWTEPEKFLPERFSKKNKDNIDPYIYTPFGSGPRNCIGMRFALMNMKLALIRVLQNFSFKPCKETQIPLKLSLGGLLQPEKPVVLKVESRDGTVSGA
Chain of hERG channels (Q12809 whole entry): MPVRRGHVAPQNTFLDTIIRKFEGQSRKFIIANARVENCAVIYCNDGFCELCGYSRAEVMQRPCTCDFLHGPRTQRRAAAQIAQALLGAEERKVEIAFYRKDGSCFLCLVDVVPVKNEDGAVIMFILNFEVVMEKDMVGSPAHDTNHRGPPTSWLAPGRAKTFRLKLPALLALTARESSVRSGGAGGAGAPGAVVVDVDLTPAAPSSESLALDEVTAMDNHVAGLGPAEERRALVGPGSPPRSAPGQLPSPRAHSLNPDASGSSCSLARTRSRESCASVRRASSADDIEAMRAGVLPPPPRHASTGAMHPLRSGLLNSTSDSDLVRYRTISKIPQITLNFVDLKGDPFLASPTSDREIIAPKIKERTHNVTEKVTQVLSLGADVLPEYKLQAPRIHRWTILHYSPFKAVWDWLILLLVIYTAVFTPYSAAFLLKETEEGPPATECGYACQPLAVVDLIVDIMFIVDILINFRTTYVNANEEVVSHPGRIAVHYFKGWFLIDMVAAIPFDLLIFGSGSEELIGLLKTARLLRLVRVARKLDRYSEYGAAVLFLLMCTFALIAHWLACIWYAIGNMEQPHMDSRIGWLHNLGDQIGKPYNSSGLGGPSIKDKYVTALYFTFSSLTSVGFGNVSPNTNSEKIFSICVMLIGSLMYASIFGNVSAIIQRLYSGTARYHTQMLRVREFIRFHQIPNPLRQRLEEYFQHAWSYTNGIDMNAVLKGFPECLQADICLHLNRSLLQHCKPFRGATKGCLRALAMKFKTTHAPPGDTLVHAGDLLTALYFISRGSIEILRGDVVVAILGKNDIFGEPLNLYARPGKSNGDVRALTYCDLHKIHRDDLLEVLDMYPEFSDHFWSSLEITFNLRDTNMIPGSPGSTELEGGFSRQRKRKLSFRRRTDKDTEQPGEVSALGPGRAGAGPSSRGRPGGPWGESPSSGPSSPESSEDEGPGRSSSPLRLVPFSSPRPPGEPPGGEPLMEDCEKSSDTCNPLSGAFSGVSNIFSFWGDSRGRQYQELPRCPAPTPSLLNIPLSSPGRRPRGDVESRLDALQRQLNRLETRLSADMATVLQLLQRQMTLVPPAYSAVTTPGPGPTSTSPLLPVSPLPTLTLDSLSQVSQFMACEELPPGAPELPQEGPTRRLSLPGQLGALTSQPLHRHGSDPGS

For NC(CO)(CO)CCc1ccc(Sc2cccc(OCc3ccccc3)c2)cc1Cl [KRP203, 2-amino-2-[4-(3-benzyloxyphenylthio)-2-chlorophenyl] ethyl-propane-1,3-diol], the genotoxic potential (bacterial mutation) was “no evidence for a genotoxic potential”, the “inhibition of allogeneic-stimulated T cell proliferation” value [1] was “does not inhibit” and the “effects on respiratory function” value [2] was “no significant effects”. For the same molecule, the QT prolongation (QT prolongation [3]) was “No indication for QT prolongation”, the “effect on pulmonary endothelial barrier” value [4] was “mildly decreased pulmonary endothelial barrier” and the “intravenous dose producing lethality” value (rats) was “above 50 mg/kg”. The “oral dose producing lethality” value (rats) was 1000 mg/kg, the QT prolongation (QT prolongation [5]) was “No indication for QT prolongation” and the “intravenous dose producing lethality” value (mice [6]) was “above 50 mg/kg”. The “hepatotoxicity-related changes in genomic profiling of the liver” value (liver) was “did not indicate any hepatotoxicity-related changes”, the “subjects with AEs that resulted in discontinuation of study drug” value (“subjects with AEs that resulted” below) ([7]; 1 mg KRP203+CsA arm) was 33% and the “safety profile between dose groups” value ([7]; 1 mg/day plus CsA or 3 mg/day plus CsA or TAC) was “comparable between the 1 mg and 3 mg mocravimod dose groups”. The “subjects with AEs that resulted” value ([7]; 3 mg KRP203+CsA arm) was 29%, the “subjects with AEs that resulted” value ([7]; 3 mg KRP203+Tac arm) was 14% and the “subjects with AEs, SOC general disorders and administration site conditions” value [7, 15] was 60%. The “subjects with AEs, SOC immune system disorders” value [7, 15] was 100%, the “subjects with AEs, SOC infection and infestations” value [7, 15] was 50% and the “subjects with acute GvHD in intestine” value [7, 15] was 30%. For the same molecule, the “subjects with acute GvHD in skin” value [7, 15] was 30%, the “subjects with chronic GvHD” value [7, 15] was 70% and the “subjects with chronic GvHD in intestine” value [7, 15] was 20%. The “subjects with chronic GvHD in liver” value [7, 15] was 50%, the “subjects with chronic GvHD in skin” value [7, 15] was 30% and the subjects with diarrhea [7, 15] was 20%. The “subjects with edema peripheral” value [7, 15] was 40%, the “subjects with edema peripheral suspected related to study treatment” value [7, 15] was 20% and the “subjects with eyelid edema” value [7, 15] was 20%. The subjects with nausea [7, 15] was 20%, the subjects with rash [7, 15] was 20% and the “subjects with AEs, SOC gastrointestinal disorder” value [7, 16] was 70%. For the same molecule, the “subjects with AEs, SOC immune system disorders” value [7, 16] was 30%, the “subjects with AEs, SOC nervous system disorders” value [7, 16] was 30% and the “subjects with AEs, SOC respiratory, thoracic and mediastinal disorders” value [7, 16] was 40%. For the same molecule, the “subjects with AEs, SOC vascular disorders” value [7, 16] was 30%, the “subjects with acute GvHD in intestine” value [7, 16] was 30% and the “subjects with capillary leak syndrome (suspected related to study treatment)” value [7, 16] was 20%. For the same molecule, the subjects with nausea [7, 16] was 20%, the “subjects with pleural effusion (suspected related to study treatment)” value [7, 16] was 20% and the subjects with vomiting [7, 16] was 60%. The “subjects with AEs, SOC gastrointestinal disorders” value [7, 17] was 60%, the subjects with bradycardia [7, 17] was 20% and the “subjects with bradycardia suspected related to study treatment” value [7, 17] was 20%. The “subjects with hypertension suspected related to study treatment” value [7, 17] was 10%, the subjects with nausea [7, 17] was 20% and the “subjects with sinus arrest suspected related to study treatment” value [7, 17] was 10%. For the same molecule, the subjects with vomiting [7, 17] was 40%, the “subjects reporting AEs” value ([7]; Part 1, after 30 days of study treatment) was “all subjects” and the “subjects with serious AEs suspected related (cystoid macular edema, dyspnea exertional, edema peripheral)” value ([7]; Part 1, after 30 days of transplant, mild severities) was 10%. The “subjects with SAEs” value [7, 18] was 40%, the “subjects with SAEs, general disorders and administration site conditions” value [7, 18] was 30% and the “subjects with SAEs, infections and infestations” value [7, 18] was 20%. For the same molecule, the “subjects with SAEs, neoplasms benign, malignant and unspecified” value [7, 18] was 20%, the “subjects with serious AEs (acute GvHD, dyspnea and weight increased)” value ([7]; Part 1, from transplant up to 30 days after the transplant) was 20% and the “subjects reporting AEs” value [7, 19] was “seven subjects”. The “subjects with serious AE of vomiting” value [7, 19] was 10%, the “subjects reporting AEs” value ([7]; Part 1, up to 30 days of transplant) was “nine subjects” and the “subjects with serious AEs of blepharitis and cystoid macular edema” value [7, 20] was 10%. For the same molecule, the “subjects with serious AEs suspected related (blepharitis Grade 2, cystoid macular edema Grade 3)” value [7, 20] was 17%, the “subjects with at least one AE” value ([7]; Part 2, both treatment arms (n=13), in each of the three periods) was 100% and the “subjects with serious AE acute GvHD in intestine” value [7, 21] was 23%. The “subjects with serious AE diarrhea” value [7, 21] was 15%, the “subjects with serious AE general physical health deterioration” value [7, 21] was 15% and the “incidence each of febrile bone marrow aplasia, hepatic failure, Hodgkin's disease, macular ischemia and retinal ischemia (related SAEs)” value [7, 22] was 8%. For the same molecule, the “subjects with serious AEs suspected related to study treatment” value [7, 22] was 31%, the “serious AEs” value ([7]; Part 2, start of treatment until just before transplant) was “No serious AE” and the “study discontinuation due to AEs” value ([7]; all 23 treated subjects) was 13%. The “study discontinuation due to death” value ([7]; all 23 treated subjects) was 9%, the deaths reported ([7]; overall, during the study, one-year and long-term follow-up period) was “seven” and the eye irritation (eye irritation) was “marked eye irritation”. For the same molecule, the exhibits hematological cytotoxicity [8] was “does not”, the APD prolongation [9] was “No APD prolongation” and the “Recovery of absolute lymphocyte counts to 80% of normal counts” value [10] was “more than 10 days”. The “inhibition of hERG channels” value (hERG channels) was “slight inhibitory potential”, the “no mortality following single oral dosing up to” value (dogs) was “up to 2000 mg/kg” and the “doses with kidney toxicity” value (mice [11]; both, 2 weeks) was at least 45 mg/kg. For the same molecule, the doses with mortality (mice [11]; both, 2 weeks) was at least 45 mg/kg/day, the “no kidney changes up to highest dose level” value (mice [11]; 13 weeks) was at most 20 mg/kg and the AUC0-24 [12] was about 7250 ng·h/mL. The “no effects on male fertility up to highest dose” value (rats and rabbits; in vivo) was at most 20 mg/kg, the “NOAEL for embryo lethality and malformations” value (rats and rabbits; rat study) was “no NOAEL” and the reproductive toxicity (rats and rabbits; rats and rabbits) was “teratogenic potential and effects on the reproductive tract, resulting in embryo lethality and malformations at low doses”. For the same molecule, the contact sensitizing potential [13] was “does not have a contact sensitizing potential”, the “reduction of lymphocyte counts in peripheral blood” value [14] was “more than 80%” and the “metabolism by CYP enzymes” value (CYP3A4) was “only to a limited extent”. For the same molecule, the “metabolism by CYP enzymes” value (CYP3A4; listed as Mocravimod) was “mainly metabolized by the enzyme CYP3A4”.
